The results in this text go back to ChEMBL document CHEMBL3507680, “University of Dundee, Gates Library screen for HepG2 cell viability”.

The nature of the data set: Human HepG2 cell viability assay in 384 well format. The format is toxicity, cell-based. On the set-up: dose 125 nL, time 70.5 hour; concentration not given beside the values. Conditions: HepG2 cells, read-out: Inhibition.

On to `Cc1cc2ncn(C(=O)N3CCCCC3)c2cc1C`, for which the cytotoxicity at 70.5 h is -7.84%.
In the case of `O=C(c1cn(CC(=O)N2CCCCC2)c2ccccc12)C1CC1`, the cytotoxicity at 70.5 h amounted to 24%.
The same measure for `O=C(NCc1ccco1)[C@@]12CCO[C@@H]1CCN(CCN1CCCC1)C2`: 8.62%; for `Cc1cnc(N2CC3(CCN(C(=O)c4ccoc4)C3)C2)nc1`: -2.31%.
The same measure for `Cc1cccc(CN2C[C@@H]3CN(C(=O)NC(C)C)C[C@@H]3C2=O)c1`: -11.4%; for `Cc1cc(C(=O)N2C[C@@H]3[C@@H](C2)OCC(=O)N3CC2CC2)no1`: -13.6%.
The figure for `O=C(c1cccs1)N1C[C@H]2CC[C@@]3(N=C(c4ccccc4)NC3=O)[C@H]2C1` is -4.38%.
In the case of `CN(C)[C@@H]1CCN(c2ncccn2)[C@H]1Cc1ccccc1`, the cytotoxicity at 70.5 h was -6.06%.
The figure for `CC(=O)N1[C@H](Cn2cncn2)C[C@@H]2CN(c3ccc(C)nn3)CC[C@@H]21` is -6.42%.
`COCC1CN(C(=O)c2cccn2C)Cc2ncnn2C1` (stereo unspecified): the cytotoxicity at 70.5 h was -3.03%.
The figure for `Cc1ccc(CN2CC[C@H]3C[C@@H](c4nc(C5CC5)cs4)O[C@@H]3C2)o1` is -7.46%; for `Cc1ccc(N2CC3(CCN(C(=O)c4ccoc4)C3)C2)nn1` it is -12.3%; for `Cc1nc([C@@H]2C[C@@H]3CCN(C(=O)c4occc4C)C[C@H]3O2)no1` it is 23.8%.
Take `CCc1ncnc2c1CCN(C(=O)N1CCCC1)CC2`: the cytotoxicity at 70.5 h amounted to 20.9%.
Regarding `CC(C)NC(=O)N1CCC2(CC(C(=O)NCc3cccnc3)=NO2)C1` (stereo unspecified), the cytotoxicity at 70.5 h was -11.9%.
The same measure for `COCCO[C@@H]1C[C@H]2CN(C(=O)c3ccc(C)nc3)CCN2C1`: -9.86%; for `O=C(NCC1CC1)C1=NOC2(CCN(Cc3ccc4c(c3)OCO4)C2)C1` (stereo unspecified): -5.94%.
The figure for `COCCO[C@@H]1C[C@H]2CN(C(=O)c3cnccn3)CCN2C1` is -6.2%.
For the compound `CN1C(=O)C(c2cccnc2)CC12CCN(C(=O)c1cccn1C)CC2` (stereo unspecified), the cytotoxicity at 70.5 h is -10.3%.
The figure for `Cc1cc(C(=O)N2C[C@@H]3COC[C@]3(c3nnc(C4CC4)o3)C2)on1` is -19%; for `O=C(NCC1CC1)C1CN(C(=O)c2cccs2)CC12CCOCC2` (stereo unspecified) it is -13.2%; for `c1cnc(NCc2noc3c2CN(C2CCOCC2)CC3)nc1` it is -10.6%.
For `CN(C)S(=O)(=O)N1CCC2(COCc3cnc(-c4ccccc4)nc32)C1` (stereo unspecified), the cytotoxicity at 70.5 h is -23.1%.
The figure for `COc1cccc(C(=O)N2CCc3ncnc(C)c3CC2)c1` is -5.4%; for `Cn1cc(CN2CC3(CCN(C(=O)c4ccoc4)C3)C2)cn1` it is -6.02%.
The figure for `Cc1ccc(N2CC3(CCN(c4nccs4)C3)C2)nn1` is -4.92%; for `Cc1nn(C)cc1-c1cc(C(=O)N2CCc3ncc(Cl)cc3C2)no1` it is 0.792%; for `Cc1nn(C)cc1-c1cc(C(=O)N2CCc3ncc(Cl)cc3C2)on1` it is -2.35%.
Regarding `Cc1c(-c2cc(C(=O)N3CCc4ncc(Cl)cc4C3)on2)cnn1C`, the cytotoxicity at 70.5 h is 35%.
The same measure for `Cn1nccc1C(=O)N1CCC(c2ncc(Cl)cc2S(C)(=O)=O)CC1`: 18.3%.
As for `COCCC(=O)N1CCC2(CC1)CN(C(C)=O)Cc1ccccc1O2`, the cytotoxicity at 70.5 h came to 0.622%.
The same measure for `COCCC(=O)N1Cc2ccccc2OC2(CCOCC2)C1`: -0.482%; for `Cc1ncc(-c2ccncc2)c(C2CCN(C(=O)c3ccco3)CC2)n1`: -2.42%; for `Nc1ncc(CN2CCC(O)(c3ccccc3F)CC2)cn1`: -2.71%.
The figure for `COCC(=O)N1CCC2(CC1)CN(S(C)(=O)=O)Cc1ccccc1O2` is -0.505%.
The figure for `Cc1cc(C(F)(F)F)n2nc(C3CCN(S(C)(=O)=O)CC3)cc2n1` is -7.35%; for `Cc1cc(C(F)(F)F)n2nc(C3CCN(S(=O)(=O)N(C)C)CC3)cc2n1` it is -0.288%; for `Cn1ncc2c1CCCN(C(=O)C1CC1)C2` it is 14.3%.
On to `Cc1nn(C)cc1CN1CCCC(n2c(=O)oc3ccc(Cl)cc32)C1` (stereo unspecified), for which the cytotoxicity at 70.5 h came to 46.8%.
For the compound `CCCNS(=O)(=O)c1cc2c3c(c1)c(C)cc(=O)n3CCC2`, the cytotoxicity at 70.5 h was -0.859%.
Consider `CCCc1cc(C(=O)NC(C)c2ccccc2)n(C)n1` (stereo unspecified), for which the cytotoxicity at 70.5 h was -2.33%.
As for `Cc1ccnn1CCNC(=O)c1cnc(N(C)C)nc1`, the cytotoxicity at 70.5 h was -4.92%.
The same measure for `Cc1nc2c(c(NCCCN3CCOCC3)n1)CCN(C)C2`: 15.4%; for `Cc1nc2c(c(NCCN3CCOCC3)n1)CCN(C)C2`: 32.4%; for `CNc1cc(C)nc(C2COCCN2CCOc2ccc(F)cc2)n1` (stereo unspecified): -3.24%.
The same measure for `CNc1cc(C)nc(C2COCCN2CCc2ccccc2)n1` (stereo unspecified): -1.48%; for `CCCn1nc(C)c(C(=O)N(C)[C@@H]2CC[C@@H](OC)[C@@H]2O)c1C`: -3.89%.
The figure for `CC(C)(C)c1ccc(CN2C[C@H]3C[C@H](O)C[C@H]3C2)c(OCC(N)=O)c1` is -2.7%.
`CNC(=O)C1(CCCc2cnccn2)CCN1Cc1ccc(C)cc1` (stereo unspecified): the cytotoxicity at 70.5 h was -5.64%.
The same measure for `CC(=O)N1CCN(c2cc(C)ncn2)CC(CO)C1` (stereo unspecified): -3.4%; for `CC(=O)N1CCC1c1cc(N2CCSCC2)nc(C)n1` (stereo unspecified): -1.98%.
As to `COc1ccc2c(c1)C(=O)NC1(CC2)CCN(Cc2cccnc2)C1` (stereo unspecified), the cytotoxicity at 70.5 h is -2.38%.
The same measure for `CC(=O)N1CCC(c2n[nH]cc2-c2ccnc(N)c2)C1` (stereo unspecified): 15.7%.
Turning to `O=C(c1cnccn1)N1CCCC(Cc2ccccn2)C1` (stereo unspecified), the cytotoxicity at 70.5 h amounted to 4.02%.
The same measure for `Cc1c[nH]c(C2COCCN2C(=O)c2n[nH]c(=O)c3ccccc23)n1` (stereo unspecified): -13.4%.
On to `CCCC(=O)N1CCCC1(C)c1nc(C)no1` (stereo unspecified), for which the cytotoxicity at 70.5 h is -14.9%.
As to `COc1ccc(CNC(Cc2ccsc2)c2ncccc2C)cc1OC` (stereo unspecified), the cytotoxicity at 70.5 h is -4.5%.
Turning to `O=c1c(CN2CC3CCCN3C[C@@H]2CCO)coc2ccc(Cl)cc12` (stereo partly specified), the cytotoxicity at 70.5 h is -6.6%.
As for `CC(=O)N1CCN(c2cnccn2)CC(CO)C1` (stereo unspecified), the cytotoxicity at 70.5 h was -5.92%.
Take `CC(C)N1CCCC1c1cc(CCO)[nH]n1` (stereo unspecified): the cytotoxicity at 70.5 h was -9.45%.
The figure for `c1ccc2ncc(CC3CCNCC3)cc2c1` is 13.4%; for `COc1ccc(OCCc2cc(C3CNCCO3)nn2C)cc1` (stereo unspecified) it is 12.2%; for `CCCc1nnsc1C(=O)N1CCCC1(C)C(=O)N1CCOCC1` (stereo unspecified) it is -9.09%.
The figure for `CN1CCCC1c1cncc(C(=O)NCCN2CCCC2)n1` (stereo unspecified) is -14.2%; for `CNc1ncc(C(=O)N2CCOC(C(=O)NC3CCCC3)C2)cn1` (stereo unspecified) it is -9.73%.
Consider `COCCC(=O)N1C[C@@H](c2cccc(OC)c2)[C@@]2(CCCCC(=O)N2)C1`, for which the cytotoxicity at 70.5 h was -14.8%.
The same measure for `COCC(=O)N1C[C@@H](c2cccc(OC)c2)[C@@]2(CCCCC(=O)N2)C1`: -10.3%.
The same measure for `Oc1cc(C2CCCCN2Cc2ccsc2)nc(-c2ccncc2)n1` (stereo unspecified): -9.16%; for `CCNC(=O)Nc1ncc(-c2cccnc2)s1`: -6.64%; for `CNC(=O)C1CN(Cc2cc(C)on2)CCN(C2CCOCC2)C1` (stereo unspecified): -7.77%.
For `Cc1cc(N2CCN(Cc3cn(C)nc3C)CC2)cc(C2CCCN2)n1` (stereo unspecified), the cytotoxicity at 70.5 h was -1.66%.
The figure for `Cc1nc(Nc2nncs2)cc(C2CCCN2)n1` (stereo unspecified) is -4.59%; for `OC1CCN(c2cncc(CCC3CCCN3)n2)CC1` (stereo unspecified) it is -4.54%.
The same measure for `COc1cccc2c(C)c(C(=O)N3CCNCC3C(N)=O)[nH]c12` (stereo unspecified): -7.8%.
As to `FC(F)(F)c1ccc(-c2cnc(C3CCCN3)cn2)cc1` (stereo unspecified), the cytotoxicity at 70.5 h was 13.6%.
As for `Cn1cnc2c(N3CCCC3)nc(C3CCNCC3)cc21`, the cytotoxicity at 70.5 h was -17%.
Take `Cc1ccc(C(=O)N2CCC3(CC2)CC(c2ccccc2)C(=O)N3)cn1` (stereo unspecified): the cytotoxicity at 70.5 h came out at 0.473%.
Regarding `Cc1occc1C(=O)N1CCC2(CCN(Cc3nccs3)C2)CC1`, the cytotoxicity at 70.5 h was -11%.
With `CS(=O)(=O)N1CC[C@H]2O[C@H](C(=O)NCCc3ccncc3)CC[C@H]21`, the cytotoxicity at 70.5 h is 14.6%.
On to `O=C(NC1CC1)N1CCc2ncnc(-c3ccncc3)c2CC1`, for which the cytotoxicity at 70.5 h is 18.5%.
On to `Cn1cc(CN2CC[C@H]3O[C@H](C(=O)NCc4ccco4)CC[C@H]32)cn1`, for which the cytotoxicity at 70.5 h is -12.4%.
As to `Cc1ccc(CN2CC(C(=O)N3CCCC3)C3(CCOCC3)C2)s1` (stereo unspecified), the cytotoxicity at 70.5 h is -9.91%.
The figure for `O=C(Nc1ccccc1)C1CN(CC2CC2)CC12CCOCC2` (stereo unspecified) is -17.6%; for `O=C(c1cnccn1)N1CCc2ncnc(-c3cccnc3)c2CC1` it is -16.1%.
The figure for `COCC(=O)N1CCCn2c(CN3CCCCC3)nnc2C1` is -7.69%.
For `CCOCC1CN(Cc2cccc(C#N)c2)Cc2nccn2C1` (stereo unspecified), the cytotoxicity at 70.5 h was -1.89%.
Consider `CS(=O)(=O)NCc1cnc2n1CCN(Cc1ccsc1)CC2`, for which the cytotoxicity at 70.5 h came out at 8.08%.
The same measure for `CC(C)COCc1cncc2c1CCN(Cc1cnn(C)c1)C2`: -13.8%; for `c1cncc(COCc2nnc3n2CCN(Cc2ccoc2)C3)c1`: -9.66%.
As for `CN(Cc1ccco1)C[C@H]1OC[C@@H]2CCN(Cc3cccs3)C[C@@H]21`, the cytotoxicity at 70.5 h is -13.4%.
The same measure for `O=C(c1cccnc1)N1CC[C@H](OCC2CC2)[C@@H]1Cc1cccnc1`: -5.08%; for `CC(C)Nc1nc2c(cc1C(=O)N(C)C)CCNCC2`: -6.7%; for `CC(C)N(C)Cc1cn2c(n1)CN(Cc1ccsc1)CC2`: 10.4%.
Turning to `CN(Cc1ccco1)C[C@H]1OC[C@@H]2CCN(Cc3cccnc3)C[C@@H]21`, the cytotoxicity at 70.5 h is -7.43%.
The same measure for `CCc1cc(C(F)(F)F)n2nc(C3CCCN3C3CCSCC3)cc2n1` (stereo unspecified): -2.16%; for `CCN(CC)CCCNc1nc(C)nc2c1CCN(C)C2`: -1.66%.
